For the first test, the system named is HCV 1b-377-neo replicon cells. Briefly: HCV replicon assay, HCV 1b-377-neo replicon cells (1b FRET). The format is cell-based, Hepatitis C virus genotype 1b. The following applies: HCV 1b replicon, FRET; read-out: 1b Fret (EC50 μM). The method, boiled down: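 Compounds were tested in genotype 1b subgenomic replicon cells carrying a neomycin marker, alongside a matched replicon line with an NS5A Y2065H substitution that confers resistance to a reference NS5A inhibitor.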
For `CC(C)[C@H](NS(=O)(=O)C(C)C)C(=O)N1CCC[C@H]1c1ncc(-c2ccc(-c3ccc(-c4cnc([C@@H]5CCCN5C(=O)[C@@H](NS(=O)(=O)N(C)C)C(C)C)[nH]4)cc3)cc2)[nH]1` [Example F65, N—((S)-1-((S)-2-(5-(4′-(2-((S)-1-((S)-2-(N,N-dimethylsulfamoylamino)-3-methylbutanoyl)pyrrolidin-2-yl)-1H-imidazol-5-yl)biphenyl-4-yl)-1H-imidazol-2-yl)pyrrolidin-1-yl)-3-methyl-1-oxobutan-2-yl)propane-2-sulfonamide], the half-maximal effective concentration (EC50) is 210 nM.

Still in this test, the particulars now being: HCV 1b-377-neo replicon cells; HCV 1b genotype; read-out: EC50 range against HCV 1b (Table 2, Range).
On to `CC(C)[C@H](NS(=O)(=O)C(C)C)C(=O)N1CCC[C@H]1c1ncc(-c2ccc(-c3ccc(-c4cnc([C@@H]5CCCN5C(=O)[C@@H](NS(=O)(=O)N(C)C)C(C)C)[nH]4)cc3)cc2)[nH]1` [Example F65, N—((S)-1-((S)-2-(5-(4′-(2-((S)-1-((S)-2-(N,N-dimethylsulfamoylamino)-3-methylbutanoyl)pyrrolidin-2-yl)-1H-imidazol-5-yl)biphenyl-4-yl)-1H-imidazol-2-yl)pyrrolidin-1-yl)-3-methyl-1-oxobutan-2-yl)propane-2-sulfonamide], for which the EC50 fell in the range of 100 to 999 nM.

Turning to `COC(=O)N[C@@H](C(=O)N1CCC[C@H]1c1ncc(-c2ccc(-c3ccc(-c4cnc([C@@H]5CCCN5C(=O)[C@H](NC(=O)OC)c5ccccc5)[nH]4)cc3C)nc2)[nH]1)c1ccccc1` [Example 138], the 50% effective concentration (EC50) lay within 0.001 to 0.999 nM.

Staying with this test, now noted: Hepatitis C virus, HCV 1b-377-neo replicon cells; HCV 1b genotype; read-out: EC50 range against HCV 1b (Table 2, Range).
Consider `CC(C)[C@@H](O)C(=O)N1[C@@H](C)CC[C@H]1c1nc(-c2ccc(-c3ccc(-c4c[nH]c([C@@H]5CC[C@H](C)N5C(=O)[C@H](O)C(C)C)n4)cc3)cc2)c[nH]1` [Example M160, (2R,2′R)-1,1′-(4,4′-biphenyldiylbis(1H-imidazole-4,2-diyl((2S,5S)-5-methyl-2,1-pyrrolidinediyl)))bis(3-methyl-1-oxo-2-butanol)], for which the EC50 was in the range of 1 to 99 nM.

On to `CN(C)[C@@H](C(=O)N1CCC[C@H]1c1ncc(-c2ccc(-c3ccc(-c4cnc([C@@H]5CCCN5C(=O)[C@@H](c5ccccc5)N(C)C)[nH]4)cc3)cc2)[nH]1)c1ccccc1` [Example 1, (1R,1′R)-2, 2′-(4,4′-biphenyldiylbis (1H-imidazole-5,2-diyl(2S)-2,1-pyrrolidinediyl))bis(N,N-dimethyl-2-oxo-1-phenylethanamine)], for which the 50% effective concentration (EC50) was in the range of 0.001 to 0.999 nM.

For the compound `CCN(CC)[C@@H](C(=O)N1CCC[C@H]1c1ncc(-c2ccc(-c3ccc(-c4cnc([C@@H]5CCCN5C(=O)c5cccnc5)[nH]4)cc3)cc2)[nH]1)c1ccccc1` [Example M38, (1R)-N,N-diethyl-2-oxo-1-phenyl-2-((2S)-2-(5-(4′-(2-((2S)-1-(3-pyridinylcarbonyl)-2-pyrrolidinyl)-1H-imidazol-5-yl)-4-biphenylyl)-1H-imidazol-2-yl)-1-pyrrolidinyl)ethanamine], the EC50 lay in the range of 1 to 99 nM.

Consider `COC(=O)C[C@H](NC(=O)OC)C(=O)N1CCC[C@H]1c1ncc(-c2ccc(-c3ccc(-c4cnc([C@@H]5CCCN5C(=O)[C@@H](NC(=O)OC)C(C)C)[nH]4)cc3)cc2)[nH]1` [Example M110, methyl (3S)-3-((methoxycarbonyl)amino)-4-((2S)-2-(5-(4′-(2-((2S)-1-(N-(methoxycarbonyl)-L-valyl)-2-pyrrolidinyl)-1H-imidazol-5-yl)-4-biphenylyl)-1H-imidazol-2-yl)-1-pyrrolidinyl)-4-oxobutanoate], for which the EC50 was 1 to 99 nM.

As to `COC(=O)N[C@@H](C)C(=O)N1C[C@@H](O)C[C@H]1c1ncc(-c2ccc(-c3ccc(-c4cnc([C@@H]5C[C@H](O)CN5C(=O)[C@H](C)NC(=O)OC)[nH]4)cc3)cc2)[nH]1` [JG-8, methyl ((1S)-2-((2S,4S)-4-hydroxy-2-(5-(4′-(2-((2S,4S)-4-hydroxy-1-(N-(methoxycarbonyl)-L-alanyl)-2-pyrrolidinyl)-1H-imidazol-5-yl)-4-biphenylyl)-1H-imidazol-2-yl)-1-pyrrolidinyl)-1-methyl-2-oxoethyl)carbamate], the concentration giving a half-maximal response (EC50) was 0.001 to 0.999 nM.

Consider `COC(=O)N[C@@H](C)C(=O)N1CCC[C@H]1c1nc(-c2cnc(-c3ccc(-c4cnc([C@@H]5CCCN5C(=O)[C@H](C)NC(=O)OC)[nH]4)cc3)nc2)c[nH]1` [Example D73, methyl ((1S)-2-((2S)-2-(5-(4-(5-(2-((2S)-1-(N-(methoxycarbonyl)-L-alanyl)-2-pyrrolidinyl)-1H-imidazol-5-yl)-2-pyrimidinyl)phenyl)-1H-imidazol-2-yl)-1-pyrrolidinyl)-1-methyl-2-oxoethyl)carbamate], for which the EC50 is 0.001 to 0.999 nM.

`COC(=O)N[C@H](C(=O)N1CCC[C@H]1c1ncc(-c2ccc(-c3ccc(-c4cnc([C@@H]5CCCN5C(=O)[C@@H](NC(=O)OC)[C@@H](C)CO)[nH]4)cc3)cc2)[nH]1)C(C)C` [Example M106]: the EC50 was 1 to 99 nM.

In the case of `CCN(CC)[C@@H](C(=O)N1CCC[C@H]1c1ncc(-c2ccc(-c3ncc(-c4c[nH]c([C@@H]5CCCN5C(=O)[C@@H](NC(=O)OC)C(C)C)n4)cn3)cc2)[nH]1)c1ccccc1` [Example D76], the concentration giving a half-maximal response (EC50) is 0.001 to 0.999 nM.

In the case of `COC(=O)N[C@H](C(=O)N1CCC[C@H]1c1ncc(-c2ccc(-c3ccc(-c4cnc([C@@H]5CCCN5C(=O)[C@@H](NC(=O)OC)C5CC5)[nH]4)cc3)cc2)[nH]1)C1CC1` [Example M23, dimethyl (4,4′-biphenyldiylbis(1H-imidazole-5,2-diyl(2S)-2,1-pyrrolidinediyl((1S)-1-cyclopropyl-2-oxo-2,1-ethanediyl)))biscarbamate], the EC50 fell in the range of 1 to 99 nM.

With `COC(=O)N[C@@H](C(=O)N1CCC[C@H]1c1ncc(-c2ccc(-c3ccc(-c4cnc([C@@H]5CCCN5C(=O)C5(O)CC5)[nH]4)cc3)cc2)[nH]1)c1ccccc1` [Example 60, methyl ((1R)-2-((2S)-2-(5-(4′-(2-((2S)-1-((1-hydroxycyclopropyl)carbonyl)-2-pyrrolidinyl)-1H-imidazol-5-yl)-4-biphenylyl)-1H-imidazol-2-yl)-1-pyrrolidinyl)-2-oxo-1-phenylethyl)carbamate], the EC50 lay in the range of 0.001 to 0.999 nM.

For `C[C@H](NC(=O)[C@@H](c1ccccc1)N(C)C)c1ncc(-c2cnc(-c3ccc(-c4cnc([C@@H]5CCCN5C(=O)[C@@H](c5ccccc5)N(C)C)[nH]4)cc3)cn2)[nH]1` [Example 152j-18, (2R)-2-(dimethylamino)-N-((1S)-1-(5-(5-(4-(2-((2S)-1-((2R)-2-(dimethylamino)-2-phenylacetyl)-2-pyrrolidinyl)-1H-imidazol-5-yl)phenyl)-2-pyrazinyl)-1H-imidazol-2-yl)ethyl)-2-phenylacetamide], the EC50 was 0.001 to 0.999 nM.

For the compound `CC[C@H](NC(=O)OC)C(=O)N1CCC[C@H]1c1ncc(-c2ccc(-c3ccc(-c4cnc([C@@H]5CCCN5C(=O)[C@@H](NC(=O)OC)C(C)C)[nH]4)cc3)cc2)[nH]1` [Example M74, methyl ((1S)-1-(((2S)-2-(5-(4′-(2-((2S)-1-((2S)-2-((methoxycarbonyl)amino)butanoyl)-2-pyrrolidinyl)-1H-imidazol-5-yl)-4-biphenylyl)-1H-imidazol-2-yl)-1-pyrrolidinyl)carbonyl)-2-methylpropyl)carbamate], the concentration giving a half-maximal response (EC50) fell in the range of 1 to 99 nM.

With `COC(=O)N[C@@H](C(=O)N1CCC[C@H]1c1ncc(-c2ccc(-c3ccc(-c4cnc([C@@H]5CCCN5C(=O)[C@@H](c5ccccc5)N5CCCC5)[nH]4)cc3)cc2)[nH]1)c1ccccc1` [Example 100, methyl ((1R)-2-oxo-1-phenyl-2-((2S)-2-(5-(4′-(2-((2S)-1-((2R)-2-phenyl-2-(1-pyrrolidinyl)acetyl)-2-pyrrolidinyl)-1H-imidazol-5-yl)-4-biphenylyl)-1H-imidazol-2-yl)-1-pyrrolidinyl)ethyl)carbamate], the half-maximal effective concentration (EC50) is 0.001 to 0.999 nM.

With `CCN(CC)[C@@H](C(=O)N1CCC[C@H]1c1ncc(-c2ccc(-c3ccc(-c4cnc([C@@H]5CCCN5C(=O)[C@@H](c5ccccc5)N(CC)CC)[nH]4)c(F)c3)cc2)[nH]1)c1ccccc1` [Example D47, (1R,1′R)-2,2′-((3-fluoro-4,4′-biphenyldiyl)bis(1H-imidazole-5,2-diyl(2S)-2,1-pyrrolidinediyl))bis (N,N-diethyl-2-oxo-1-phenylethanamine)], the 50% effective concentration (EC50) was in the range of 0.001 to 0.999 nM.

The values are drawn from patent US8574563B2 (Bristol-Myers Squibb Company, priority 2006, dated 2013).
